Measured values as given in US20020052295A1, “Diacyl derivatives of propylene diamine having herbicidal activity” (priority 1999, published 2002).

Tests used:
Settings in all cases: lowest tested rate giving 80% or greater inhibition, approx. 14 days after planting and treating, greenhouse
[1] = tested on: SOLNI; experiment: Pre-emergence herbicidal activity on SOLNI (black nightshade); type: in vivo, Solanum nigrum
Text: (§1) All such uses, and the biological activity enabling such uses, are embraced by the term “herbicidal” herein. Tables 15 and 16 summarize results of tests conducted as described below to determine the pre-emergence herbicidal activity, in the form of a GR80 value, of illustrative compounds of this invention. […] Where herbicidal activity was evident but 80% inhibition was not achieved at the highest rate tested (typically 1000 g/ha), an asterisk (*) is shown in the following tables. Herbicidal activity evident in the form of symptoms of phytotoxicity, in the absence of at least 80% inhibition at any rate, is indicated in the tables by “phyto”. A blank cell in the following tables indicates no herbicidal or phytotoxic response at any rate tested.
(§2) The pre-emergence tests were conducted by the following procedure. Topsoil was sieved to pass through a 1.27 cm screen. Fertilizer was added to the topsoil and the mixture was then sterilized by heating. The topsoil mixture was placed in a pot and compacted to a depth of 1.0 to 1.25 cm from the top of the pot. Seeds of each of several monocotyledonous and dicotyledonous annual plant species were placed on top of the soil. Additional soil was subsequently placed over the seeds to level-fill the pot. A known amount of each test compound dissolved or suspended in an appropriate organic solvent was diluted with a 50:50 mix of acetone and water and applied to the surface of the soil. After treatment the plants were placed in a greenhouse with a 30/21° C. day/night temperature regime where they received 0.64 cm of overhead irrigation. All subsequent watering consisted of a light overhead mist and/or subirrigation as needed for germination and growth.
(§3) Approximately 14 days after planting and treating, the plants were observed and herbicidal efficacy recorded as percent inhibition by comparison with untreated plants.
(§4) The plant species usually regarded as weeds which were utilized in the tests are identified in the tables below according to the following legend, in which “d” indicates a dicotyledonous species and “m” a monocotyledonous species. All monocotyledonous species included in the tests herein are grasses.

[2] = tested on: BRAPP; experiment: Pre-emergence herbicidal activity on BRAPP (broadleaf signalgrass); type: in vivo, Brachiaria platyphylla
Text: as §1, §2, §3, §4

[3] = tested on: AMARE; experiment: Pre-emergence herbicidal activity on AMARE (redroot pigweed); type: in vivo, Amaranthus retroflexus
Text: as §1, §2, §3, §4

[4] = tested on: ECHCG; experiment: Pre-emergence herbicidal activity on ECHCG (barnyardgrass); type: in vivo, Echinochloa crus-galli
Text: as §1, §2, §3, §4

[5] = tested on: CIRAR; experiment: Pre-emergence herbicidal activity on CIRAR (canada thistle, seedling); type: in vivo, Cirsium arvense
Text: as §1, §2, §3, §4

[6] = tested on: CHEAL; experiment: Pre-emergence herbicidal activity on CHEAL (common lambsquarters); type: in vivo, Chenopodium album
Text: as §1, §2, §3, §4

[7] = tested on: ABUTH; experiment: Pre-emergence herbicidal activity on ABUTH (velvetleaf); type: in vivo, Abutilon theophrasti
Text: as §1, §2, §3, §4

[8] = tested on: PANMI; experiment: Pre-emergence herbicidal activity on PANMI (wild proso millet); type: in vivo, Panicum miliaceum
Text: as §1, §2, §3, §4

[9] = tested on: POROL; experiment: Pre-emergence herbicidal activity on POROL (common purslane); type: in vivo, Portulaca oleracea
Text: as §1, §2, §3, §4

[10] = tested on: DIGSA; experiment: Pre-emergence herbicidal activity on DIGSA (large crabgrass); type: in vivo, Digitaria sanguinalis
Text: as §1, §2, §3, §4

[11] = tested on: SORHA; experiment: Pre-emergence herbicidal activity on SORHA (johnsongrass, seedling); type: in vivo, Sorghum halepense
Text: as §1, §2, §3, §4

[12] = tested on: SETFA; experiment: Pre-emergence herbicidal activity on SETFA (giant foxtail); type: in vivo, Setaria faberi
Text: as §1, §2, §3, §4

[13] = tested on: DATST; experiment: Pre-emergence herbicidal activity on DATST (jimsonweed); type: in vivo, Datura stramonium
Text: as §1, §2, §3, §4

[14] = tested on: PANDI; experiment: Pre-emergence herbicidal activity on PANDI (fall panicum); type: in vivo, Panicum dichotomiflorum
Text: as §1, §2, §3, §4

[15] = tested on: CONAR; experiment: Pre-emergence herbicidal activity on CONAR (field bindweed); type: in vivo, Convolvulus arvensis
Text: as §1, §2, §3, §4

| SMILES | Pre-emergence activity (GR80) on SOLNI [1] | Pre-emergence activity (GR80) on BRAPP [2] | Pre-emergence activity (GR80) on AMARE [3] | Pre-emergence activity (GR80) on ECHCG [4] | Pre-emergence activity (GR80) on CIRAR [5] | Pre-emergence activity (GR80) on CHEAL [6] | Pre-emergence activity (GR80) on ABUTH [7] | Pre-emergence activity (GR80) on PANMI [8] | Pre-emergence activity (GR80) on PORAL [9] | Pre-emergence activity (GR80) on DIGSA [10] | Pre-emergence activity (GR80) on SORHA [11] | Pre-emergence activity (GR80) on SETFA [12] | Pre-emergence activity (GR80) on DATST [13] | Pre-emergence activity (GR80) on PANDI [14] | Pre-emergence activity (GR80) on CONAR [15] |
| --- | --- | --- | --- | --- | --- | --- | --- | --- | --- | --- | --- | --- | --- | --- | --- |
| CC(CNC(=O)c1cccc(C(F)(F)F)c1)NC(=O)c1cc(C(F)(F)F)ccc1Cl (stereo not shown) [Example 9] | 500 g/ha | phyto | 125 g/ha | phyto | 750 g/ha | 500 g/ha | phyto | phyto | 125 g/ha | 500 g/ha | * (Where herbicidal activity was evident but 80% inhibition was not achieved at the highest rate tested (typically 1000 g/ha), an asterisk (*) is shown) | 1000 g/ha | 500 g/ha | 500 g/ha | – |
| CC(CNC(=O)c1cccc(C(F)(F)F)c1)NC(=O)c1cccc(C(F)(F)F)c1I (stereo not shown) [Example 15] | * (Where herbicidal activity was evident but 80% inhibition was not achieved at the highest rate tested (typically 1000 g/ha), an asterisk (*) is shown) | – | 64 g/ha | phyto | phyto | 125 g/ha | – | – | 500 g/ha | phyto | – | phyto | * (Where herbicidal activity was evident but 80% inhibition was not achieved at the highest rate tested (typically 1000 g/ha), an asterisk (*) is shown) | phyto | phyto |
| Cc1c(C(=O)NC(C)CNC(=O)c2cccc(C(F)(F)F)c2)cccc1C(F)(F)F (stereo not shown) [Example 16] | 500 g/ha | – | 250 g/ha | – | 750 g/ha | 1000 g/ha | * (Where herbicidal activity was evident but 80% inhibition was not achieved at the highest rate tested (typically 1000 g/ha), an asterisk (*) is shown) | 1000 g/ha | – | 750 g/ha | – | 500 g/ha | 1000 g/ha | * (Where herbicidal activity was evident but 80% inhibition was not achieved at the highest rate tested (typically 1000 g/ha), an asterisk (*) is shown) | – |
| CCOc1c(F)cccc1C(=O)N[C@H](C)CNC(=O)c1cccc(C(F)(F)F)c1 [Example 41, R-2-ethoxy-3-fluoro-N-[1-methyl-2-(3-trifluoromethyl)phenylcarbonylamino]ethylbenzamide] | phyto | – | 250 g/ha | – | – | 750 g/ha | – | phyto | 500 g/ha | – | phyto | 1000 g/ha | 1000 g/ha | 750 g/ha | – |
| CC(CNC(=O)c1cccc(C(F)(F)F)c1)NC(=O)c1cccc(Cl)c1 (stereo not shown) [Example 43] | phyto | phyto | 250 g/ha | – | * (Where herbicidal activity was evident but 80% inhibition was not achieved at the highest rate tested (typically 1000 g/ha), an asterisk (*) is shown) | 500 g/ha | – | phyto | 500 g/ha | 750 g/ha | phyto | phyto | phyto | phyto | – |
| Cc1ccc(C)c(C(=O)NC(C)CNC(=O)c2cccc(C(F)(F)F)c2)c1 (stereo not shown) [Example 64] | 250 g/ha | 500 g/ha | 250 g/ha | 1000 g/ha | 250 g/ha | 250 g/ha | 500 g/ha | 500 g/ha | 250 g/ha | 250 g/ha | * (Where herbicidal activity was evident but 80% inhibition was not achieved at the highest rate tested (typically 1000 g/ha), an asterisk (*) is shown) | 1000 g/ha | 1000 g/ha | 250 g/ha | – |
| Cc1cccc(C(=O)NC(C)CNC(=O)c2cccc(C(F)(F)F)c2)c1C (stereo not shown) [Example 67] | – | 1000 g/ha | 500 g/ha | * (Where herbicidal activity was evident but 80% inhibition was not achieved at the highest rate tested (typically 1000 g/ha), an asterisk (*) is shown) | 500 g/ha | 250 g/ha | 500 g/ha | – | 500 g/ha | 500 g/ha | – | 750 g/ha | 500 g/ha | 500 g/ha | 1000 g/ha |
| CC(CNC(=O)c1cccc(F)c1)NC(=O)c1cccc(C(F)(F)F)c1F (stereo not shown) [Example 142] | 750 g/ha | 750 g/ha | 125 g/ha | – | 64 g/ha | 500 g/ha | 1000 g/ha | 1000 g/ha | 125 g/ha | 250 g/ha | – | 125 g/ha | 750 g/ha | 500 g/ha | – |
| CC(CNC(=O)c1cccc(Br)c1)NC(=O)c1cccc(C(F)(F)F)c1F (stereo not shown) [Example 152] | 500 g/ha | – | 250 g/ha | 750 g/ha | 250 g/ha | 250 g/ha | 750 g/ha | – | 125 g/ha | 500 g/ha | – | – | 750 g/ha | – | – |
| CC(CNC(=O)c1cccc(Cl)c1F)NC(=O)c1cccc(Cl)c1F (stereo not shown) [Example 181] | * (Where herbicidal activity was evident but 80% inhibition was not achieved at the highest rate tested (typically 1000 g/ha), an asterisk (*) is shown) | – | 500 g/ha | – | * (Where herbicidal activity was evident but 80% inhibition was not achieved at the highest rate tested (typically 1000 g/ha), an asterisk (*) is shown) | 750 g/ha | phyto | – | – | 500 g/ha | – | phyto | * (Where herbicidal activity was evident but 80% inhibition was not achieved at the highest rate tested (typically 1000 g/ha), an asterisk (*) is shown) | phyto | phyto |
| CC(CNC(=O)c1cccc(C(F)(F)F)c1)NC(=O)c1cc(C(C)(C)C)nn1C (stereo not shown) [Example 262] | – | – | – | – | – | – | – | – | – | phyto | – | – | – | – | phyto |
